Measured values taken from paper PMC6522912, “Evaluation of the published kinase inhibitor set to identify multiple inhibitors of bacterial ATP-dependent mur ligases” (Journal of Enzyme Inhibition and Medicinal Chemistry, 2019).

target: E. coli MurD (Escherichia coli, UniProt P14900); experiment: biochemical; details: not given
Description: (§1) Inhibition of the Mur ligases was determined using the malachite green assay, with slight modifications.
(§2) In all cases, the final concentration of DMSO was 5% (v/v). After incubation for 15 min at 37 °C, the enzyme reaction was terminated by addition of 100 µM Biomol green reagent, and the absorbance was measured at 650 nm after 5 min. All of the experiments were run in duplicate. Residual activities were calculated with respect to control assays without the tested compounds, but with the 5% DMSO carrier.
(§3) The published kinase inhibitor set compounds were evaluated for inhibition of MurC, D and F ligases from E. coli using the Malachite green assay, which detects orthophosphate generated during enzymatic reactions. To avoid non-specific inhibition due to aggregate formation, all of the compounds were tested in the presence of detergent (0.005% Triton-X114). The data are presented as the residual activities of these Mur ligases in the presence of 100 µM of each test compound (Supporting Information Table S1).

E. coli MurD, sequence (P14900 whole entry): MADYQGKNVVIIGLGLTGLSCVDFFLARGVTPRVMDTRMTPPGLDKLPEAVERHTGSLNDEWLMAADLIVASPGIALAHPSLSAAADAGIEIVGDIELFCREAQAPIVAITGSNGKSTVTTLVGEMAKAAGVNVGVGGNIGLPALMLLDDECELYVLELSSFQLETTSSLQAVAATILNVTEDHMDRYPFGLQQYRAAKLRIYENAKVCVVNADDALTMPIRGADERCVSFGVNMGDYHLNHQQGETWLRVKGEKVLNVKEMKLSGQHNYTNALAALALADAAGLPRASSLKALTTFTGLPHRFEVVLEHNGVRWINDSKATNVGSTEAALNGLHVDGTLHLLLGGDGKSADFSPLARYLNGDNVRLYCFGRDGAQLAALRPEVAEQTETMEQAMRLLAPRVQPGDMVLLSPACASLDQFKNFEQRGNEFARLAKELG

SMILES	RA [%] at 100 µM MurD	RA (%) MurD
Fc1ccc(-c2nc3n(c2-c2ccncc2)CCS3)cc1 [SKF-86002-A2]	91	
Cc1cc(-c2ccccn2)cc(C)c1C=Cc1cncc(-c2nn[nH]n2)c1 [Compound 6]		83%
Nc1nccc(-c2c(-c3ccc(F)cc3)ncn2C2CCNCC2)n1 [SB-220025-R#3]	87	
CNC(=O)c1cncc(C=Cc2c(C)cccc2C)c1 [Compound 9]		83%

same assay, conditions: 0.25 h, Table S1, PKIS screening; read-out: RA [%] at 100 µM MurD

SMILES	remaining activity at 100 µM
COC(=O)c1sc(-n2cnc3cc(OC)c(OC)cc32)cc1OCc1ccccc1C(F)(F)F [GSK1030058A]	78%
Cc1cc(Cl)cc2c1NC(=O)C2=NNc1ccc(S(N)(=O)=O)cc1 [GW279320X]	78%
NC(=O)c1sc(-n2cnc3ccccc32)cc1OCc1ccccc1Br [GSK1023156A]	82%
CN(c1ccc(NC(=O)Nc2ccc(OC(F)(F)F)cc2)cc1)c1ccnc(Nc2cccc(S(N)(=O)=O)c2)n1 [GW806742X]	92%
COc1cccc(-n2nc(C)c3c(N/N=C(\C)c4ccncc4)ncnc32)c1 [GW809885X]	74%
COC(=O)Nc1nc2ccc(Oc3ccc(NC(=O)Nc4cccc(Br)c4)cc3)cc2[nH]1 [GW694234A]	86%
CC1=C(C(=O)Nc2ccc3[nH]ncc3c2)C(c2ccc3ccccc3c2)CC(=O)N1 (stereo not drawn) [GSK270822A]	81%
CCS(=O)(=O)c1ccc(OC)c(Nc2ncc(-c3ccccc3Cl)o2)c1 [GW622055X]	65%
CNC(=O)c1cncc(/C=C/c2ccccc2Cl)c1 [GW445017X]	87%
CN1CCC(C(=O)Nc2n[nH]c3nc(-c4ccc(O)cc4)c(Br)cc23)CC1 [SB-732881]	84%
O=C(Nc1ccc(Oc2ccc3nc(NC(=O)c4ccccc4)[nH]c3c2)cc1)Nc1cc(C(F)(F)F)ccc1F [GW709042A]	95%
[O-][S+]1CCN(Cc2ccc(-c3ccc4ncnc(Nc5ccc(OCc6cccc(F)c6)c(Cl)c5)c4c3)o2)CC1 [GW576609A]	54%
O=C(Nc1n[nH]c2nc(-c3ccco3)c(Br)cc12)C1CC1 [SB-739452]	84%
Fc1ccc(-c2cc(-c3c[nH]nc3-c3ccccn3)ccn2)cc1 [GW680975X]	84%
CC1=C(C(=O)Nc2ccc3[nH]ncc3c2)C(c2ccc(F)cc2)NC(c2ccc(C(F)(F)F)nc2)=N1 (stereo not drawn) [GSK317354A]	96%
CCn1c(-c2nonc2N)nc2ccc(F)cc21 [GW785404X]	88%
NC(=O)c1cc(-c2ccc(F)cc2)cc(-c2ccncc2)c1N [GSK620503A]	71%
O=C(Nc1ccc(Oc2ccc3nc(NC(=O)c4ccco4)[nH]c3c2)cc1)Nc1cc(C(F)(F)F)ccc1F [GW683134A]	86%
NS(=O)(=O)c1ccc(N/N=C2\C(=O)Nc3ccc(C(=O)NCCc4c[nH]cn4)cc32)cc1 [GW300660X]	90%
C[C@@H](Oc1cc(-n2cnc3ccc(OCC4CCN(C)CC4)cc32)sc1C(N)=O)c1ccccc1Cl [GSK571989A]	53%

target: E. coli MurF (Escherichia coli, UniProt P11880); experiment: biochemical; details: 0.25 h, Table S1, PKIS screening; read-out: RA [%] at 100 µM MurF
Description: as §1, §2
as §3, with “S1). […] Additionally, regarding the data of profiled compounds in large panels of human kinase assays[41]” for “S1).”

E. coli MurF, sequence (P11880 whole entry): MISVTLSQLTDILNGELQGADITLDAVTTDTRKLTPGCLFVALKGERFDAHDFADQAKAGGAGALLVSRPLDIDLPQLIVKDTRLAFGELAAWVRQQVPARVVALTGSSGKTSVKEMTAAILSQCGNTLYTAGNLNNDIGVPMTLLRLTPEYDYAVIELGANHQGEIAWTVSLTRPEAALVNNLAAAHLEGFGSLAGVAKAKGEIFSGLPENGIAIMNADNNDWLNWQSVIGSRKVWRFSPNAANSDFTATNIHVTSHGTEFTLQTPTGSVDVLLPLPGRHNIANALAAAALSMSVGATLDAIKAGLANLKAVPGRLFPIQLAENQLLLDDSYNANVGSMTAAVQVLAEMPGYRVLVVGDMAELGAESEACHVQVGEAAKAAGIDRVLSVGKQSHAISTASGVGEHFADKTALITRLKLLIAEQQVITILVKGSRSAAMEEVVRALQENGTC

SMILES	remaining activity at 100 µM
COC(=O)c1sc(-n2cnc3cc(OC)c(OC)cc32)cc1OCc1ccccc1C(F)(F)F [GSK1030058A]	55%
Cc1cc(Cl)cc2c1NC(=O)C2=NNc1ccc(S(N)(=O)=O)cc1 [GW279320X]	0%
NC(=O)c1sc(-n2cnc3ccccc32)cc1OCc1ccccc1Br [GSK1023156A]	84%
CN(c1ccc(NC(=O)Nc2ccc(OC(F)(F)F)cc2)cc1)c1ccnc(Nc2cccc(S(N)(=O)=O)c2)n1 [GW806742X]	93%
COc1cccc(-n2nc(C)c3c(N/N=C(\C)c4ccncc4)ncnc32)c1 [GW809885X]	100%
COC(=O)Nc1nc2ccc(Oc3ccc(NC(=O)Nc4cccc(Br)c4)cc3)cc2[nH]1 [GW694234A]	72%
CC1=C(C(=O)Nc2ccc3[nH]ncc3c2)C(c2ccc3ccccc3c2)CC(=O)N1 (stereo not drawn) [GSK270822A]	68%
CCS(=O)(=O)c1ccc(OC)c(Nc2ncc(-c3ccccc3Cl)o2)c1 [GW622055X]	80%
CNC(=O)c1cncc(/C=C/c2ccccc2Cl)c1 [GW445017X]	90%
CN1CCC(C(=O)Nc2n[nH]c3nc(-c4ccc(O)cc4)c(Br)cc23)CC1 [SB-732881]	90%
O=C(Nc1ccc(Oc2ccc3nc(NC(=O)c4ccccc4)[nH]c3c2)cc1)Nc1cc(C(F)(F)F)ccc1F [GW709042A]	100%
[O-][S+]1CCN(Cc2ccc(-c3ccc4ncnc(Nc5ccc(OCc6cccc(F)c6)c(Cl)c5)c4c3)o2)CC1 [GW576609A]	78%
O=C(Nc1n[nH]c2nc(-c3ccco3)c(Br)cc12)C1CC1 [SB-739452]	87%
Fc1ccc(-c2cc(-c3c[nH]nc3-c3ccccn3)ccn2)cc1 [GW680975X]	96%
CC1=C(C(=O)Nc2ccc3[nH]ncc3c2)C(c2ccc(F)cc2)NC(c2ccc(C(F)(F)F)nc2)=N1 (stereo not drawn) [GSK317354A]	96%
CCn1c(-c2nonc2N)nc2ccc(F)cc21 [GW785404X]	79%
NC(=O)c1cc(-c2ccc(F)cc2)cc(-c2ccncc2)c1N [GSK620503A]	80%
O=C(Nc1ccc(Oc2ccc3nc(NC(=O)c4ccco4)[nH]c3c2)cc1)Nc1cc(C(F)(F)F)ccc1F [GW683134A]	100%
NS(=O)(=O)c1ccc(N/N=C2\C(=O)Nc3ccc(C(=O)NCCc4c[nH]cn4)cc32)cc1 [GW300660X]	96%
C[C@@H](Oc1cc(-n2cnc3ccc(OCC4CCN(C)CC4)cc32)sc1C(N)=O)c1ccccc1Cl [GSK571989A]	53%

same assay, conditions: Table S1, PKIS screening

SMILES	RA [%] at 100 µM MurF
Fc1ccc(-c2nc3n(c2-c2ccncc2)CCS3)cc1 [SKF-86002-A2]	97%
Nc1nccc(-c2c(-c3ccc(F)cc3)ncn2C2CCNCC2)n1 [SB-220025-R#3]	100%

same assay, conditions: Table S3, aza stilbene compounds

SMILES	RA (%) MurF
Cc1cc(-c2ccccn2)cc(C)c1C=Cc1cncc(-c2nn[nH]n2)c1 [Compound 6]	76%
CNC(=O)c1cncc(C=Cc2c(C)cccc2C)c1 [Compound 9]	54%

target: E. coli MurC (Escherichia coli, UniProt P17952); experiment: Malachite green inhibition assay, MurC; assay type: biochemical; details: 0.25 h, Table S1, PKIS screening; read-out: RA [%] at 100 µM MurC
Description: as §1, §2
as §3, with “S1). […] Additionally, regarding the data of profiled compounds in large panels of human kinase assays[41]” for “S1).”

E. coli MurC, sequence (P17952 whole entry): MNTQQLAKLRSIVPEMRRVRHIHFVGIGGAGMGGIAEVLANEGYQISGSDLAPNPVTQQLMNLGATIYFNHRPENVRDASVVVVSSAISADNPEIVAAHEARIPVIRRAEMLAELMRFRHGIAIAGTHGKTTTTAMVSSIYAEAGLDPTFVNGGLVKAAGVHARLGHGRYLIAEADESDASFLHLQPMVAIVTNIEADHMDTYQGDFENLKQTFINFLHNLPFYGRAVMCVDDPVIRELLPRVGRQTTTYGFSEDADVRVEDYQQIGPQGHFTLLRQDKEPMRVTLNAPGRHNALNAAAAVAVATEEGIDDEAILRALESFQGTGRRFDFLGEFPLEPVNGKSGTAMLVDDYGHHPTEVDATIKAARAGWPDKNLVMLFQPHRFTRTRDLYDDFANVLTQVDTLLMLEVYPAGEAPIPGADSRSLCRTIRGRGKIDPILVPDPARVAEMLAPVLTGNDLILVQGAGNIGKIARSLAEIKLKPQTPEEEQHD

SMILES	remaining activity at 100 µM
COC(=O)c1sc(-n2cnc3cc(OC)c(OC)cc32)cc1OCc1ccccc1C(F)(F)F [GSK1030058A]	32%
Cc1cc(Cl)cc2c1NC(=O)C2=NNc1ccc(S(N)(=O)=O)cc1 [GW279320X]	76%
NC(=O)c1sc(-n2cnc3ccccc32)cc1OCc1ccccc1Br [GSK1023156A]	55%
CN(c1ccc(NC(=O)Nc2ccc(OC(F)(F)F)cc2)cc1)c1ccnc(Nc2cccc(S(N)(=O)=O)c2)n1 [GW806742X]	64%
COc1cccc(-n2nc(C)c3c(N/N=C(\C)c4ccncc4)ncnc32)c1 [GW809885X]	76%
COC(=O)Nc1nc2ccc(Oc3ccc(NC(=O)Nc4cccc(Br)c4)cc3)cc2[nH]1 [GW694234A]	71%
CC1=C(C(=O)Nc2ccc3[nH]ncc3c2)C(c2ccc3ccccc3c2)CC(=O)N1 (stereo not drawn) [GSK270822A]	66%
CCS(=O)(=O)c1ccc(OC)c(Nc2ncc(-c3ccccc3Cl)o2)c1 [GW622055X]	74%
CNC(=O)c1cncc(/C=C/c2ccccc2Cl)c1 [GW445017X]	68%
CN1CCC(C(=O)Nc2n[nH]c3nc(-c4ccc(O)cc4)c(Br)cc23)CC1 [SB-732881]	71%
O=C(Nc1ccc(Oc2ccc3nc(NC(=O)c4ccccc4)[nH]c3c2)cc1)Nc1cc(C(F)(F)F)ccc1F [GW709042A]	100%
[O-][S+]1CCN(Cc2ccc(-c3ccc4ncnc(Nc5ccc(OCc6cccc(F)c6)c(Cl)c5)c4c3)o2)CC1 [GW576609A]	71%
O=C(Nc1n[nH]c2nc(-c3ccco3)c(Br)cc12)C1CC1 [SB-739452]	78%
Fc1ccc(-c2cc(-c3c[nH]nc3-c3ccccn3)ccn2)cc1 [GW680975X]	68%
CC1=C(C(=O)Nc2ccc3[nH]ncc3c2)C(c2ccc(F)cc2)NC(c2ccc(C(F)(F)F)nc2)=N1 (stereo not drawn) [GSK317354A]	68%
CCn1c(-c2nonc2N)nc2ccc(F)cc21 [GW785404X]	100%
NC(=O)c1cc(-c2ccc(F)cc2)cc(-c2ccncc2)c1N [GSK620503A]	94%
O=C(Nc1ccc(Oc2ccc3nc(NC(=O)c4ccco4)[nH]c3c2)cc1)Nc1cc(C(F)(F)F)ccc1F [GW683134A]	74%
NS(=O)(=O)c1ccc(N/N=C2\C(=O)Nc3ccc(C(=O)NCCc4c[nH]cn4)cc32)cc1 [GW300660X]	58%
C[C@@H](Oc1cc(-n2cnc3ccc(OCC4CCN(C)CC4)cc32)sc1C(N)=O)c1ccccc1Cl [GSK571989A]	51%

same assay, conditions: Table S1, PKIS screening

SMILES	RA [%] at 100 µM MurC
Fc1ccc(-c2nc3n(c2-c2ccncc2)CCS3)cc1 [SKF-86002-A2]	75%
Nc1nccc(-c2c(-c3ccc(F)cc3)ncn2C2CCNCC2)n1 [SB-220025-R#3]	81%

same assay, conditions: Table S3, aza stilbene compounds

SMILES	RA (%) MurC
Cc1cc(-c2ccccn2)cc(C)c1C=Cc1cncc(-c2nn[nH]n2)c1 [Compound 6]	59%
CNC(=O)c1cncc(C=Cc2c(C)cccc2C)c1 [Compound 9]	85%
